Data as given in patent publication US20230278987A1, “Antimicrobial Compounds and Methods” (Curza Global, LLC, priority 2019, published 2023).
≈ marks a conversion by molar mass, not a printed value. Where a name gives a salt, the structure may show the parent alone. Read-outs that look alike come from different tables or passages of the source.

Columns and labels:
S.aureus (Sa) = assay: Broth microdilution MIC against S.aureus (Sa); type: cell-based; conditions: Staphylococcus aureus
In short: (§1)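 Log-phase cultures grown at 35 ± 2° C to 0.5 McFarland (A600nm) were diluted and added at 5 × 10^4 CFU/well to two-fold compound dilutions in CAMHB, with or without bicarbonate (6.25 or 25 mM final) or human serum (0-50%). MICs followed CLSI M07-A9, slightly modified.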

A.baumannii (Ab) = assay: Broth microdilution MIC against A.baumannii (Ab); type: cell-based; conditions: Acinetobacter baumannii
In short: as §1

E.faecalis (Ef) = assay: Broth microdilution MIC against E.faecalis (Ef); type: cell-based; conditions: Enterococcus faecalis
In short: as §1

[1] = tested on: E.coli S30 extract (bacterial protein synthesis); assay: E.coli S30 extract: inhibition of bacterial protein synthesis (luciferase); type: biochemical; conditions: 37° C. for 1 hour
In short: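 Compounds (8-point 2-fold series) were incubated 1 h at 37 °C with E. coli S30 extract, premix, amino acids and pBESTluc plasmid. Reactions were chilled, luciferase reagent added and luminescence measured. Inhibition expressed relative to water controls; background from reactions lacking DNA.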

P.aeruginosa (Pa) = assay: Broth microdilution MIC against P.aeruginosa (Pa); type: cell-based; conditions: Pseudomonas aeruginosa
In short: as §1

[2] = target: Rabbit Reticulocyte Lysate (eukaryotic protein synthesis); assay: Rabbit Reticulocyte Lysate: inhibition of eukaryotic protein synthesis (luciferase); type: biochemical; conditions: 30° C. for 90 minutes, read-out: retic. IC50
In short: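 Nuclease-treated rabbit reticulocyte lysate translating luciferase control RNA, incubated 90 min at 30° C with eight 2-fold compound dilutions. Luminescence measured after adding luciferase reagent; % inhibition relative to no-inhibitor wells, with no-RNA wells as background.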

E.coli (Ec) = assay: Broth microdilution MIC against E.coli (Ec); type: cell-based; conditions: Escherichia coli
In short: as §1

[3] = CAMHB supplemented with sodium bicarbonate 6.25 mM, read-out: Sa + bicarb 6.25 (MIC)
[4] = CAMHB supplemented with sodium bicarbonate 6.25 mM, read-out: Ab +bicarb 6.25 (MIC)
[5] = CAMHB supplemented with sodium bicarbonate 6.25 mM, read-out: Ef +bicarb 6.25 (MIC)
[6] = CAMHB supplemented with sodium bicarbonate 6.25 mM, read-out: Pa +bicarb 6.25 (MIC)
[7] = CAMHB supplemented with sodium bicarbonate 6.25 mM, read-out: E. coli + bicarb 6.25 (MIC)
[8] = read-out: Sa + bicarb 6.25 (MIC)
[9] = read-out: Ab +bicarb 6.25 (MIC)
[10] = read-out: Ef +bicarb 6.25 (MIC)
[11] = read-out: Pa +bicarb 6.25 (MIC)
[12] = read-out: E. coli + bicarb 6.25 (MIC)

Row | SMILES | MIC (S.aureus (Sa); [3]) | MIC (A.baumannii (Ab); [4]) | MIC (E.faecalis (Ef); [5]) | IC50 [1] | MIC (P.aeruginosa (Pa); [6]) | IC50 [2] | MIC (E.coli (Ec); [7]) | further results
1 | CC(C)(N)C(=O)N1CCN(C(=O)Nc2ccn(-c3ccc4c(c3)CCC(N[C@H]3C[C@H](N)C3)C4)c(=O)n2)CC1 (stereo partly shown) [Compound 29] | < 8 µg/mL | > 32 µg/mL | 8 to 32 µg/mL (≈ 15.3 to 61.2 µM) | < 500 nM | > 32 µg/mL | ≥ 1000 nM | < 8 µg/mL | 
2 | CC(C)(N)C(=O)N1CCN(C(=O)Nc2ccn(-c3ccc4c(c3)CCC(N[C@H]3C[C@@H](N)C3)C4)c(=O)n2)CC1 (stereo partly drawn) [Compound 30, 4-Amino-2-Methylpropanoyl)-N-(1-(6-(((Cis-3-Aminocyclobutyl)Amino)-5,6,7,8-Tetrahydronaphthalen-2-Yl)-2-Oxo-1,2-Dihydropyrimidin-4-Yl)Piperazine-1-Carboxamide Hydrochloride Salt] | < 8 µg/mL | > 32 µg/mL | 8 to 32 µg/mL | < 500 nM | > 32 µg/mL | ≥ 1000 nM | < 8 µg/mL | 
3 | CC(C)(N)C(=O)N1CCN(C(=O)Nc2ccn(-c3ccc4c(c3)CCC(NC[C@H]3C[C@H](N)C3)C4)c(=O)n2)CC1 (stereo partly shown) [Compound 31] | < 8 µg/mL | > 32 µg/mL | 8 to 32 µg/mL (≈ 14.9 to 59.6 µM) | < 500 nM | > 32 µg/mL | ≥ 1000 nM | < 8 µg/mL | 
4 | CC(C)(N)C(=O)N1CCN(C(=O)Nc2ccn(-c3ccc4c(c3)CCC(NC[C@H]3C[C@@H](N)C3)C4)c(=O)n2)CC1 (stereo partly shown) [Compound 32] | < 8 µg/mL | > 32 µg/mL | 8 to 32 µg/mL (≈ 14.9 to 59.6 µM) | < 500 nM | > 32 µg/mL | ≥ 1000 nM | < 8 µg/mL | 
5 | CC(C)(N)C(=O)N1CCN(C(=O)Nc2ccn(-c3ccc4c(c3)CCN(C3CCC(N)CC3)C4)c(=O)n2)CC1 (stereo not shown) [Compound 35] | < 8 µg/mL | > 32 µg/mL | > 32 µg/mL | < 500 nM | > 32 µg/mL | ≥ 1000 nM | < 8 µg/mL | 
6 | CC(C)(N)C(=O)N1CCN(C(=O)Nc2ccn(-c3ccc4c(c3)CC(N[C@H]3CC[C@H](N)C3)C4)c(=O)n2)CC1 (stereo partly shown) [Compound 36, Hydrochloride Salt] | 8 to 32 µg/mL | > 32 µg/mL | > 32 µg/mL | < 500 nM | > 32 µg/mL | < 500 nM | < 8 µg/mL | 
7 | CC(C)(N)C(=O)N1CCN(C(=O)Nc2ccn(-c3ccc4c(c3)CC(NC[C@H]3C[C@H](N)C3)C4)c(=O)n2)CC1 (stereo partly shown) [Compound 37, Hydrochloride Salt] | 8 to 32 µg/mL | > 32 µg/mL | > 32 µg/mL | < 500 nM | > 32 µg/mL | ≥ 1000 nM | < 8 µg/mL | 
8 | CC(C)(N)C(=O)N1CCN(C(=O)Nc2ccn(-c3ccc4c(c3)CC(N[C@H]3CC[C@H](N)CC3)C4)c(=O)n2)CC1 (stereo partly shown) [Compound 38, Hydrochloride Salt] | 8 to 32 µg/mL | > 32 µg/mL | > 32 µg/mL | < 500 nM | > 32 µg/mL | ≥ 1000 nM | < 8 µg/mL | 
9 | CC(C)(N)C(=O)N1CCN(C(=O)Nc2ccn(-c3ccc4c(c3)CCC(N3CC(N)C3)C4)c(=O)n2)CC1 (stereo not shown) [Compound 39] | 8 to 32 µg/mL | > 32 µg/mL | > 32 µg/mL | 500 to 1000 nM | > 32 µg/mL | ≥ 1000 nM | 8 to 32 µg/mL | 
10 | CC(C)(N)C(=O)N1CCN(C(=O)Nc2ccn(-c3ccc4c(c3)CCC(N3CC(CN)C3)C4)c(=O)n2)CC1 (stereo not shown) [Compound 40, Hydrochloride Salt] | < 8 µg/mL | > 32 µg/mL | 8 to 32 µg/mL | < 500 nM | > 32 µg/mL | ≥ 1000 nM | < 8 µg/mL | 
11 | CC(C)(N)C(=O)N1CCN(C(=O)Nc2ccn(-c3ccc4c(c3)CCC(N3CCC(CCN)CC3)C4)c(=O)n2)CC1 (stereo not shown) [Compound 42, 4-(2-Amino-2-methylpropanoyl)-N-(1-(6-(4-(2-aminoethyl)piperidin-1-yl)-5,6,7,8-tetrahydronaphthalen-2-yl)-2-oxo-1,2-dihydropyrimidin-4-yl)piperazine-1-carboxamide hydrochloride salt] |  |  |  | ≥ 1000 nM |  | ≥ 1000 nM |  | MIC (S.aureus (Sa); [8]): 8 to 32 µg/mL; MIC (A.baumannii (Ab); [9]): > 32 µg/mL; MIC (E.faecalis (Ef); [10]): > 32 µg/mL; MIC (P.aeruginosa (Pa); [11]): > 32 µg/mL; MIC (E.coli (Ec); [12]): < 8 µg/mL
12 | CC(C)(N)C(=O)N1CCN(C(=O)Nc2ccn(-c3ccc4c(c3)CCC(N3CCCC(N)CC3)C4)c(=O)n2)CC1 (stereo not shown) [Compound 43] | < 8 µg/mL | > 32 µg/mL | > 32 µg/mL | < 500 nM | > 32 µg/mL | ≥ 1000 nM | < 8 µg/mL | MIC (S.aureus (Sa); CAMHB supplemented with sodium bicarbonate 25 mM, read-out: Sa + bicarb 25 (MIC)): < 8 µg/mL; MIC (A.baumannii (Ab); CAMHB supplemented with sodium bicarbonate 25 mM, read-out: Ab +bicarb 25 (MIC)): 8 to 32 µg/mL (≈ 14.5 to 58.1 µM); MIC (E.faecalis (Ef); CAMHB supplemented with sodium bicarbonate 25 mM, read-out: Ef +bicarb 25 (MIC)): < 8 µg/mL; MIC (P.aeruginosa (Pa); CAMHB supplemented with sodium bicarbonate 25 mM, read-out: Pa +bicarb 25 (MIC)): 8 to 32 µg/mL (≈ 14.5 to 58.1 µM); MIC (E.coli (Ec); CAMHB supplemented with sodium bicarbonate 25 mM, read-out: E.coli + bicarb 25 (MIC)): < 8 µg/mL
13 | COC(=O)N[C@H]1CC[C@H](NC2CCc3cc(-n4ccc(NC(=O)N5CCN(C(=O)C(C)(C)N)CC5)nc4=O)ccc3C2)C1 (stereo partly drawn) [Compound 45, Methyl ((1S,3S)-3-((6-(4-(4-(2-amino-2-methylpropanoyl)piperazine-1-carboxamido)-2-oxopyrimidin-1(2H)-yl)-1,2,3,4-tetrahydronaphthalen-2-yl)amino)cyclopentyl)Carbamate Hydrochloride Salt] |  |  |  | ≥ 1000 nM |  | ≥ 1000 nM |  | MIC (S.aureus (Sa); [8]): > 32 µg/mL; MIC (A.baumannii (Ab); [9]): > 32 µg/mL; MIC (E.faecalis (Ef); [10]): > 32 µg/mL; MIC (P.aeruginosa (Pa); [11]): > 32 µg/mL; MIC (E.coli (Ec); [12]): > 32 µg/mL
14 | CC(C)(N)C(=O)N1CCN(C(=O)Nc2ccn(-c3ccc4c(c3)CN([C@H]3CC[C@H](N)CC3)C4)c(=O)n2)CC1 [Compound 46, 4-(2-amino-2-methylpropanoyl)-N-(1-(2-((trans)-4-aminocyclohexyl)isoindolin-5-yl)-2-oxo-1,2-dihydropyrimidin-4-yl)piperazine-1-carboxamide hydrochloride salt] |  |  |  | < 500 nM |  | ≥ 1000 nM |  | MIC (S.aureus (Sa); read-out: Sa + bicarb 25 (MIC)): < 8 µg/mL; MIC (A.baumannii (Ab); read-out: Ab +bicarb 25 (MIC)): 8 to 32 µg/mL; MIC (E.faecalis (Ef); read-out: Ef +bicarb 25 (MIC)): 8 to 32 µg/mL; MIC (P.aeruginosa (Pa); read-out: Pa +bicarb 25 (MIC)): 8 to 32 µg/mL; MIC (E.coli (Ec); read-out: E.coli + bicarb 25 (MIC)): < 8 µg/mL
